Test [1] deals with Disintegrin and metalloproteinase domain-containing protein 17 (Homo sapiens, UniProt P78536). Description: Inhibition of TACE by FRET assay.
The target of test [2] is Disintegrin and metalloproteinase domain-containing protein 17 (Mus musculus, UniProt Q9Z0F8). Description: Inhibition of TACE in mouse Raw264.7 cells assessed as inhibition of LPS-induced TNFalpha production treated 1 hr before LPS challenge measured 4 hrs post LPS challenge. The class given is cell-based.
Another test deals with T1, Interstitial collagenase (Homo sapiens, UniProt P03956).
T1 sequence (P03956 whole entry): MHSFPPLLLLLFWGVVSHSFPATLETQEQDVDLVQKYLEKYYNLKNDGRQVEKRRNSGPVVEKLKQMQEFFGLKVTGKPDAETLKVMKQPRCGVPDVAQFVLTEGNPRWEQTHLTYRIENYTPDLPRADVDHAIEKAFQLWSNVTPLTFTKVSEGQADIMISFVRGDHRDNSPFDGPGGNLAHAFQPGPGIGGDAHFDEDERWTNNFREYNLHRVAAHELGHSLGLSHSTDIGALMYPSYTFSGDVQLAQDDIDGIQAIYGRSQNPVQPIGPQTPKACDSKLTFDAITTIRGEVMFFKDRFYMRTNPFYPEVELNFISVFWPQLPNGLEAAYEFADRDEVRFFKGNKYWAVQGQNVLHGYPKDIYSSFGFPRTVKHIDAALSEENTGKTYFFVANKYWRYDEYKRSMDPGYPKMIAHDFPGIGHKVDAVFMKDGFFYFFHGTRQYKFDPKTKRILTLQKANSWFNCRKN
Description: Inhibition of MMP1 by FRET assay.

Another test concerns the target Collagenase 3 (Homo sapiens, UniProt P45452). Description: Inhibition of MMP13 by […] assay.
The target in test [3] is 72 kDa type IV collagenase (Homo sapiens, UniProt P08253). Description: Inhibition of MMP2 by […] assay.
72 kDa type IV collagenase, sequence (P08253 whole entry): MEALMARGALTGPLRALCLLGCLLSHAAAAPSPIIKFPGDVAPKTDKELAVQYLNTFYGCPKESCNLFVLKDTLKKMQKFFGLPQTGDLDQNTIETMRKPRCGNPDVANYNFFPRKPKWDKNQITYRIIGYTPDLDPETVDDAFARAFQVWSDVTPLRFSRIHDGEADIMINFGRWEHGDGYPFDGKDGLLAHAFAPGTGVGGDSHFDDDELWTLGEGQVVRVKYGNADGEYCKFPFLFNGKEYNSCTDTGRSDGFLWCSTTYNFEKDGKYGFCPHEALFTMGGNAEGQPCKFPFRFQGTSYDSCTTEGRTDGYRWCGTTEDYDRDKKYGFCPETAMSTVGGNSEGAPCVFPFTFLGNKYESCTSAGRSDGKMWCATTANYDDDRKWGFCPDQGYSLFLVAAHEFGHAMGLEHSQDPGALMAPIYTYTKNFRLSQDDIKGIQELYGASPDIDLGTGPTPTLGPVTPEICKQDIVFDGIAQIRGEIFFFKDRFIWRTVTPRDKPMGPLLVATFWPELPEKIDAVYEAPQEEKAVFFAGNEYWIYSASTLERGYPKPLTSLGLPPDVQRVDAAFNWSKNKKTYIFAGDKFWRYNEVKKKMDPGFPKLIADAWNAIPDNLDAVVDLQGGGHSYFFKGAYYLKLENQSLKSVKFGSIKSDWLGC
Test [4] deals with Matrix metalloproteinase-14 (Homo sapiens, UniProt P50281). Description: Inhibition of MMP14 by […] assay.

The structures appear in SMILES notation. Where only a bound is given, the exact number is not on record here.

The text below walks through data of ChEMBL document CHEMBL1137760, “Synthesis and activity of tryptophan sulfonamide derivatives as novel non-hydroxamate TNF-alpha converting enzyme (TACE) inhibitors” (Bioorg Med Chem, 2009).

Disintegrin and metalloproteinase domain-containing protein 17 (Homo sapiens, UniProt P78536), sequence (P78536 whole entry, the tested form may be a part): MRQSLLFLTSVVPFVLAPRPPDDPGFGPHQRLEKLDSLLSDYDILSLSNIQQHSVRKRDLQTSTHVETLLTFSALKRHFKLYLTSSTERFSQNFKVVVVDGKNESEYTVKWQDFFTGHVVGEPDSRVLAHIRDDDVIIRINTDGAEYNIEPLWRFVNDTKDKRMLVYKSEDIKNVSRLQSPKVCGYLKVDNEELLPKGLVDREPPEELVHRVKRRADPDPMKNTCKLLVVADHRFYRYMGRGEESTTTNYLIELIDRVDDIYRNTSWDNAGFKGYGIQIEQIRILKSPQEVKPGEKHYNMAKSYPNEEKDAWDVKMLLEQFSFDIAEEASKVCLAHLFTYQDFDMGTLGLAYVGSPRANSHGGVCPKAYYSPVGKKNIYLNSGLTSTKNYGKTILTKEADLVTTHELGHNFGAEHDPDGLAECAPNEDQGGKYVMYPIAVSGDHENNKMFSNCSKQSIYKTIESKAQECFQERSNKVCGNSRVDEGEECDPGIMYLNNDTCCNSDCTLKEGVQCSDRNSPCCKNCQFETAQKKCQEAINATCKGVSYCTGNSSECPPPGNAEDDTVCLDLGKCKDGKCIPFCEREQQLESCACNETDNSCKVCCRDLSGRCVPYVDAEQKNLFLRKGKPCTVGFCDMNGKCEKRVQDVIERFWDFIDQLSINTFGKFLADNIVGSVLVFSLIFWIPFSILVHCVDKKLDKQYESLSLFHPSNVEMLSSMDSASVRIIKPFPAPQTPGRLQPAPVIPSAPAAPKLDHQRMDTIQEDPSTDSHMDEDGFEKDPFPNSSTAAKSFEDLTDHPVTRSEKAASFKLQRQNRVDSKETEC
Disintegrin and metalloproteinase domain-containing protein 17 (Mus musculus, UniProt Q9Z0F8), sequence (Q9Z0F8 whole entry, the tested form may be a part): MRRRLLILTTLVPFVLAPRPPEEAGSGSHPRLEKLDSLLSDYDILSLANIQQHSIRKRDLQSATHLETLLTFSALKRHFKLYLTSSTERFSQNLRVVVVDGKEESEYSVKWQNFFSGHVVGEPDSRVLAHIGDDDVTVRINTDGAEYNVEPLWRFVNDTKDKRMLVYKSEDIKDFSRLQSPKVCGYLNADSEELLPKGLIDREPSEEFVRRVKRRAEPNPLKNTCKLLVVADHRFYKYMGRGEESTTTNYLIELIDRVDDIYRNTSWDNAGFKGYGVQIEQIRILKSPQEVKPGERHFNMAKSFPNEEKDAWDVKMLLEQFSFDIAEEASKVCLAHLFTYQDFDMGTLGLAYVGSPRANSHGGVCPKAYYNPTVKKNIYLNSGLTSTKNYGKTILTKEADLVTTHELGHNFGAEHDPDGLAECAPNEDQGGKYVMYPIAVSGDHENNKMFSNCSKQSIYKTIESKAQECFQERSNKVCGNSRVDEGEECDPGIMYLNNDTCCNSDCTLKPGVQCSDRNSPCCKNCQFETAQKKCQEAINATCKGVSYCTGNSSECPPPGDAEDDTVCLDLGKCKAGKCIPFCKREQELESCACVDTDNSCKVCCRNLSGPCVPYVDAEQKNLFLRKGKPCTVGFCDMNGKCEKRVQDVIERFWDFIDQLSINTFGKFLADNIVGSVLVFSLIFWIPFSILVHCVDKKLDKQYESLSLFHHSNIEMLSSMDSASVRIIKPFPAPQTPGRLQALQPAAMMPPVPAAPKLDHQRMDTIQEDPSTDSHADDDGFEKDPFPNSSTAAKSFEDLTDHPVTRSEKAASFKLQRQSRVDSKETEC

Compound `CC#CCOc1ccc(S(=O)(=O)N[C@H](Cc2cn(C)c3ccccc23)C(=O)O)cc1` showed an IC50 in test [1] of 1430 nM.
For `CC#CCOc1ccc(S(=O)(=O)N[C@H](Cc2cn(Cc3ccc(OC)cc3)c3ccccc23)C(=O)O)cc1`, the figures for the IC50 (in test [2]; at Interstitial collagenase) were > 100000 nM and > 50000 nM, respectively.
For `CC#CCOc1ccc(S(=O)(=O)NC(Cc2c(C)n(Cc3cccc(C#N)c3)c3ccc(OC)cc23)C(=O)O)cc1` (configuration not stated), the IC50 in test [1] stood at 410 nM.
Same read-out and setting: the result for `CC#CCOc1ccc(S(=O)(=O)N[C@H](Cc2cn(CC3CCC3)c3ccccc23)C(=O)O)cc1` reads 1710 nM.
Regarding `CC#CCOc1ccc(S(=O)(=O)N[C@H](Cc2c[nH]c3ccc(C)cc23)C(=O)O)cc1`, the IC50 was 7800 nM in test [2]; 1810 nM against Collagenase 3; 270 nM in test [3]; 6820 nM in test [4]; > 50000 nM at Interstitial collagenase.
In turn, `CC#CCOc1ccc(S(=O)(=O)NC(Cc2cn(Cc3ccc4c(c3)OCO4)c3ccc(OC)cc23)C(=O)O)cc1` (racemic) displayed an IC50 in test [1] of 1500 nM.
Same read-out and setting: for `CC#CCOc1ccc(S(=O)(=O)NC(Cc2c[nH]c3cc(C)ccc23)C(=O)O)cc1` (racemic) the value was 1570 nM; for `CC#CCOc1ccc(S(=O)(=O)NC(Cc2c[nH]c3ccc(Br)cc23)C(=O)O)cc1` (racemic), 630 nM; for `CC#CCOc1ccc(S(=O)(=O)NC(Cc2cn(C)c3ccc(C(=O)O)cc23)C(=O)O)cc1` (racemic), > 100000 nM.
Compound `CC#CCOc1ccc(S(=O)(=O)NC(Cc2cn(CC(C)C)c3ccc(OC)cc23)C(=O)O)cc1` (racemic) had a half-inhibitory concentration (IC50) in test [1] of 1230 nM.
The same measure, in the same setting: for `CC#CCOc1ccc(S(=O)(=O)NC(Cc2c(C)n(CC(C)C)c3ccc(Cl)cc23)C(=O)O)cc1` (racemic) the value was 300 nM.
Same read-out and setting: the result for `CC#CCOc1ccc(S(=O)(=O)NC(Cc2cn(CC)c3ccc(C(=O)O)cc23)C(=O)O)cc1` (racemic) reads > 100000 nM; that for `CC#CCOc1ccc(S(=O)(=O)NC(Cc2c(C)n(Cc3ccc(Cl)cc3)c3ccc(OC)cc23)C(=O)O)cc1` (racemic), 290 nM; that for `CC#CCOc1ccc(S(=O)(=O)NC(Cc2c(C)n(Cc3cccc(F)c3)c3ccc(OC)cc23)C(=O)O)cc1` (racemic), 340 nM.
Still for that read-out and setting: the result for `CC#CCOc1ccc(S(=O)(=O)NC(Cc2c(C)n(Cc3ccc(C#N)cc3)c3ccc(OC)cc23)C(=O)O)cc1` (racemic) reads 470 nM.
As for `CC#CCOc1ccc(S(=O)(=O)NC(Cc2c(C)n(Cc3ccccc3F)c3ccc(OC)cc23)C(=O)O)cc1` (racemic), in test [1], the IC50 was found to be 300 nM.
On the same count and under the same terms, for `CC#CCOc1ccc(S(=O)(=O)NC(Cc2c(C)n(Cc3ccc(OC)cc3)c3ccc(Cl)cc23)C(=O)O)cc1` (racemic) the value was 190 nM.
On the same count and under the same terms, the result for `CC#CCOc1ccc(S(=O)(=O)NC(Cc2c(C)n(Cc3ccccc3)c3ccc(OC)cc23)C(=O)O)cc1` (racemic) reads 250 nM.
Still for that read-out and setting: for `CC#CCOc1ccc(S(=O)(=O)NC(Cc2c(C)n(Cc3cccc(OC)c3)c3ccc(OC)cc23)C(=O)O)cc1` (racemic) the value was 280 nM; for `CC#CCOc1ccc(S(=O)(=O)NC(Cc2cn(Cc3ccccc3F)c3ccc(OC)cc23)C(=O)O)cc1` (racemic), 2240 nM; for `CC#CCOc1ccc(S(=O)(=O)NC(Cc2c[nH]c3ccc(O)cc23)C(=O)O)cc1` (racemic), 1610 nM.
`CC#CCOc1ccc(S(=O)(=O)NC(Cc2c[nH]c3ccc(F)cc23)C(=O)O)cc1` (racemic) came in with an IC50 in test [1] of 1560 nM.
Regarding `CC#CCOc1ccc(S(=O)(=O)NC(Cc2c[nH]c3cc(F)ccc23)C(=O)O)cc1` (racemic), the IC50 in test [1] turned out to be 2960 nM.
Same read-out and setting: the result for `CC#CCOc1ccc(S(=O)(=O)NC(Cc2c(C)n(Cc3ccc(F)cc3)c3ccc(OC)cc23)C(=O)O)cc1` (racemic) reads 320 nM.
Still for that read-out and setting: for `CC#CCOc1ccc(S(=O)(=O)NC(Cc2cn(Cc3ccccc3)c3ccc(C(=O)O)cc23)C(=O)O)cc1` (racemic) the value was > 100000 nM; for `CC#CCOc1ccc(S(=O)(=O)NC(Cc2c(C)n(Cc3ccc(Cl)cc3)c3ccc(Cl)cc23)C(=O)O)cc1` (racemic), 330 nM.
Still for that read-out and setting: for `CC#CCOc1ccc(S(=O)(=O)NC(Cc2cn(Cc3ccc(OC)cc3)c3ccc(C)cc23)C(=O)O)cc1` (racemic) the value was 890 nM.
`CC#CCOc1ccc(S(=O)(=O)NC(Cc2c(C)n(C)c3ccc(OC)cc23)C(=O)O)cc1` (racemic) yielded an IC50 in test [1] of 900 nM.
The same measure, in the same setting: the result for `CC#CCOc1ccc(S(=O)(=O)NC(Cc2cn(Cc3cccc(OC)c3)c3ccc(OC)cc23)C(=O)O)cc1` (racemic) reads 2240 nM; that for `CC#CCOc1ccc(S(=O)(=O)NC(Cc2c[nH]c3ccc(OC)cc23)C(=O)O)cc1` (single isomer, unassigned; enantiomer 1), 10100 nM.
`CC#CCOc1ccc(S(=O)(=O)NC(Cc2c[nH]c3ccc(OCc4ccccc4)cc23)C(=O)O)cc1` (single isomer, unassigned; enantiomer 2): the IC50 at Collagenase 3 was 4440 nM; in test [3], 3270 nM; in test [1], 370 nM; in test [4] it was 19700 nM; against Interstitial collagenase, > 50000 nM.
As for `CC#CCOc1ccc(S(=O)(=O)NC(Cc2c[nH]c3ccc(OC)cc23)C(=O)O)cc1` (single isomer, unassigned; enantiomer 2), the IC50 was 57000 nM in test [2]; 13600 nM on Collagenase 3; 1270 nM in test [3]; 140 nM in test [1]; 20700 nM in test [4]; > 50000 nM on Interstitial collagenase.
The compound `CC#CCOc1ccc(S(=O)(=O)NC(Cc2c[nH]c3ccc(OCc4ccccc4)cc23)C(=O)O)cc1` (stereo in doubt; 11h) displayed an IC50 in test [1] of 6980 nM.
